Test results as given in patent publication US20100204129A1, “USE OF A PEPTIDE AS A THERAPEUTIC AGENT” (priority 2008, published 2010).
Non-standard residues stand in square brackets, D forms with d. Residues, ends and D or L forms follow the SMILES beside them.

Tested on: drug-resistant Mycobacterium tuberculosis
Conditions: 5 micrograms per ml

SMILES: CC(C)C[C@H](NC(=O)[C@H](CC(C)C)NC(=O)[C@@H](Cc1c[nH]c2ccccc12)NC(=O)[C@H](Cc1ccccc1)NC(=O)[C@@H](Cc1c[nH]c2ccccc12)NC(=O)[C@H](CCC(N)=O)NC(=O)[C@H](CCC(N)=O)NC(=O)[C@@H]1CCCN1C(=O)[C@H](CCCCN)NC(=O)[C@@H]1CCCN1C(=O)[C@@H](CCCNC(=N)N)NC(=O)[C@@H]1CCCN1C(=O)CNC(=O)[C@H](CC(C)C)NC(=O)[C@H](CC(C)C)NC(=O)[C@H](Cc1ccc(O)cc1)NC(=O)CNC(=O)[C@H](C)NC(=O)[C@H](CO)NC(=O)[C@H](CC(N)=O)NC(=O)[C@H](CC(C)C)NC(=O)[C@@H](NC(=O)[C@H](Cc1c[nH]c2ccccc12)NC(=O)CN)[C@@H](C)O)C(N)=O [Spantide-I, Gly-Trp-Thr-Leu-Asn-Ser-Ala-Gly-Tyr-Leu-Leu-Gly-Pro-D-Arg-Pro-Lys-Pro-Gln-Gln-D-Trp-Phe-D-Trp-Leu-Leu-NH2] (H-GWTLNSAGYLLGP[dR]PKPQQ[dW]F[dW]LL-NH2)
- % inhibition: 100.0%
